“And” between values parts separate entries of the source, which are not always exact repeats. Equal values may be shown once. “Also recorded” adds a separate entry of the source.
Columns and labels:
Assay type in all cases: binding
[1] = molecular target: T1, MERS-CoV macro domain (Middle East respiratory syndrome-related coronavirus, UniProt K9N638)
[2] = molecular target: T1, MERS-CoV macro domain; remark: listed apart in the source
[3] = molecular target: T1, MERS-CoV macro domain; remark: listed apart in the source
[4] = molecular target: T1, MERS-CoV macro domain; remark: listed apart in the source

T1 sequence (K9N638 1110-1276 limits assumed): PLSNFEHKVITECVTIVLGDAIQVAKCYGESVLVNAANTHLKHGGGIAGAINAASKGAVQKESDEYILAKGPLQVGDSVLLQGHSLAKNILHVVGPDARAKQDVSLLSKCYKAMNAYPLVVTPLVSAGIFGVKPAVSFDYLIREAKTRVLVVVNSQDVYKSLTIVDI

## Nc1ncnc2c1ncn2[C@@H]1O[C@H](COP(=O)(O)OP(=O)(O)O)[C@@H](O)[C@H]1O [ADP, adenosine diphosphate]
[1]
  Melting temperature (Tm) of the MERS-CoV macro domain in complex, CD: 43.7 °C
[2]
  n (stoichiometry of binding): 1.08 ± 0.06
  ΔH: -3.85 ± 1.8 kcal/mol
  −TΔS: -1.86 ± 1.51 kcal/mol
[3]
  NMR CSP, residue 11: 0.01279 and 0.006701
  NMR CSP, residue 29: 0.01328 and 0.01691
  NMR CSP, residue 36: 0.05057
  NMR CSP, residue 37: 0.07911
  NMR CSP, residue 46: 0.3834
  NMR CSP, residue 47: 0.05654 and 0.03639
  NMR CSP, residue 48: 0.08159 and 0.1212
  NMR CSP, residue 67: 0.0178 and 0.009143
  NMR CSP, residue 75: 0.05887 and 0.06181
  NMR CSP, residue 94: 0.1393
  NMR CSP, residue 101: 0.03691 and 0.02294
  NMR CSP, residue 125: 0.08579
  NMR CSP, residue 130: 0.08457 and 0.1167
  NMR CSP, residue 132: 0.01774 and 0.01343
  NMR CSP, residue 149: 0.01454
  NMR CSP, residue 154: 0.08237
  NMR CSP, residue 156: 0.2276
[4]
  Melting temperature (Tm) of the MERS-CoV macro domain in complex, DSF: 44.5 °C

## Nc1ncnc2c1ncn2C1OC(COP(=O)(O)O)C(O)C1O (centres unmarked) [AMP, adenosine monophosphate]
[1]
  Melting temperature (Tm) of the MERS-CoV macro domain in complex, CD: 44.0 °C
[2]
  n (stoichiometry of binding): 1.05 ± 0.38
  ΔH: -2.674 ± 0.722 kcal/mol
  −TΔS: -2.419 ± 0.571 kcal/mol
[3]
  NMR CSP, residue 12: 0.007029 and 0.005468
  NMR CSP, residue 22: 0.06732 and 0.05323
  NMR CSP, residue 23: 0.01249 and 0.01858
  NMR CSP, residue 31: 0.03059 and 0.02592
  NMR CSP, residue 55: 0.07284 and 0.04017
  NMR CSP, residue 67: 0.009649 and 0.005916
  NMR CSP, residue 70: 0.01453 and 0.01754
  NMR CSP, residue 71: 0.01269 and 0.01423
  NMR CSP, residue 78: 0.004301 and 0.003017
  NMR CSP, residue 81: 0.019 and 0.02485
  NMR CSP, residue 85: 0.01205 and 0.01581
  NMR CSP, residue 90: 0.01829 and 0.02265
  NMR CSP, residue 99: 0.0122 and 0.008579
  NMR CSP, residue 110: 0.01629 and 0.01233
  NMR CSP, residue 130: 0.0583 and 0.06532
  NMR CSP, residue 138: 0.02281 and 0.03131
  NMR CSP, residue 153: 0.05051
  NMR CSP, residue 156: 0.1498
  NMR CSP, residue 161: 0.003728 and 0.003225
  NMR chemical shift perturbation behaviour / exchange regime: fast-exchange; also recorded: almost no chemical shift perturbation
[4]
  Melting temperature (Tm) of the MERS-CoV macro domain in complex, DSF: 42.5 °C

## Nc1ncnc2c1ncn2[C@@H]1O[C@H](COP(=O)(O)OP(=O)(O)OP(=O)(O)O)[C@@H](O)[C@H]1O [ATP, adenosine triphosphate]
[1]
  Melting temperature (Tm) of the MERS-CoV macro domain in complex, CD: 44.4 °C
[2]
  n (stoichiometry of binding): 1.28 ± 0.23
  ΔH: -0.103 ± 0.0621 kcal/mol
  −TΔS: -4.725 ± 0.115 kcal/mol
[3]
  NMR CSP, residue 4: 0.02128 and 0.03079
  NMR CSP, residue 8: 0.08407 and 0.1389
  NMR CSP, residue 11: 0.01204 and 0.01003
  NMR CSP, residue 12: 0.02593 and 0.01302
  NMR CSP, residue 13: 0.02822 and 0.05324
  NMR CSP, residue 15: 0.05255 and 0.08443
  NMR CSP, residue 16: 0.08559 and 0.1065
  NMR CSP, residue 19: 0.2213 and 0.3991
  NMR CSP, residue 20: 0.5582 and 0.5971
  NMR CSP, residue 24: 0.02113 and 0.02272
  NMR CSP, residue 27: 0.04023 and 0.04654
  NMR CSP, residue 31: 0.01765 and 0.03281
  NMR CSP, residue 32: 0.03557 and 0.06867
  NMR CSP, residue 33: 0.003317 and 0.005514
  NMR CSP, residue 35: 0.08722 and 0.0586
  NMR CSP, residue 41: 0.07865 and 0.1421
  NMR CSP, residue 42: 0.02022 and 0.03875
  NMR CSP, residue 44: 0.117 and 0.1567
  NMR CSP, residue 46: 0.2082 and 0.117
  NMR CSP, residue 49: 0.1963 and 0.3148
  NMR CSP, residue 52: 0.1171 and 0.2037
  NMR CSP, residue 53: 0.06017 and 0.08476
  NMR CSP, residue 54: 0.04378 and 0.08204
  NMR CSP, residue 55: 0.03609 and 0.04139
  NMR CSP, residue 56: 0.1144
  NMR CSP, residue 59: 0.1073 and 0.0995
  NMR CSP, residue 64: 0.02081 and 0.02918
  NMR CSP, residue 67: 0.009187 and 0.006075
  NMR CSP, residue 68: 0.007457 and 0.01342
  NMR CSP, residue 69: 0.006641 and 0.01241
  NMR CSP, residue 70: 0.007029 and 0.01308
  NMR CSP, residue 74: 0.01357 and 0.01451
  NMR CSP, residue 76: 0.1087 and 0.1584
  NMR CSP, residue 79: 0.06062 and 0.09243
  NMR CSP, residue 80: 0.02546 and 0.0359
  NMR CSP, residue 82: 0.03386 and 0.028
  NMR CSP, residue 88: 0.01281 and 0.02472
  NMR CSP, residue 91: 0.02979 and 0.05588
  NMR CSP, residue 92: 0.05948 and 0.09574
  NMR CSP, residue 98: 0.08735 and 0.113
  NMR CSP, residue 99: 0.04875 and 0.06519
  NMR CSP, residue 101: 0.01539 and 0.022
  NMR CSP, residue 102: 0.003066
  NMR CSP, residue 104: 0.03263 and 0.04354
  NMR CSP, residue 105: 0.0458 and 0.08781
  NMR CSP, residue 108: 0.03048 and 0.01721
  NMR CSP, residue 109: 0.0202 and 0.03155
  NMR CSP, residue 111: 0.0136 and 0.02579
  NMR CSP, residue 113: 0.02518 and 0.03785
  NMR CSP, residue 117: 0.02758 and 0.03325
  NMR CSP, residue 119: 0.05435 and 0.04262
  NMR CSP, residue 122: 0.04092 and 0.06158
  NMR CSP, residue 125: 0.4401 and 0.7457
  NMR CSP, residue 126: 0.163 and 0.2535
  NMR CSP, residue 131: 0.1039 and 0.07453
  NMR CSP, residue 132: 0.1244 and 0.1155
  NMR CSP, residue 135: 0.05654 and 0.08994
  NMR CSP, residue 136: 0.05575 and 0.07379
  NMR CSP, residue 138: 0.04766 and 0.08654
  NMR CSP, residue 139: 0.05001 and 0.03334
  NMR CSP, residue 140: 0.07046 and 0.09693
  NMR CSP, residue 144: 0.02987 and 0.05222
  NMR CSP, residue 148: 0.04492 and 0.05905
  NMR CSP, residue 149: 0.04139 and 0.04999
  NMR CSP, residue 151: 0.03194 and 0.04624
  NMR CSP, residue 152: 0.2468
  NMR CSP, residue 153: 0.1157 and 0.09952
  NMR CSP, residue 155: 0.2226 and 0.3418
  NMR CSP, residue 156: 0.03888
  NMR CSP, residue 158: 0.03042 and 0.04983
  NMR CSP, residue 159: 0.008826 and 0.007483
  NMR CSP, residue 161: 0.02817 and 0.01678
  NMR CSP, residue 164: 0.03315 and 0.0552
[4]
  Melting temperature (Tm) of the MERS-CoV macro domain in complex, DSF: 43.0 °C
